Results reported in patent US20230241024A1, “METHODS OF TREATING METABOLIC DISORDERS” (Sunovion Pharmaceuticals Inc., priority 2021, published 2023).

Experiments:
[1] = system: lean, fasted, male CD1 mice; experiment: Acute intravenous glucose tolerance test (IVGTT), plasma glucose and insulin (Example 6)
Description: (§1) A vehicle control group was included in the study design. […] Blood samples were taken at various timepoints during the test and subsequently assessed for plasma glucose and insulin content.
Via a lateral tail vein, a baseline blood sample (B1; 30 µl) was taken from all animals prior to vehicle or drug treatment. Five minutes later, mice were dosed with Treatment 1 detailed by the oral route (see above table; approx. 30 minutes pre-glucose). Thirty minutes later, mice were dosed with Treatment 2 by the intravenous route (by a lateral tail vein). […] A B2 sample (30 µl) was also taken briefly before glucose administration. All blood samples (from the tail vein) were collected into lithium heparinised tubes (Sarstedt Microvette CB300LH) and plasma separated by centrifugation to produce a single aliquot of plasma which was frozen (approx. -80° C.) and subsequently assayed for glucose (Thermoelectron infinity glucose reagent, TR15421) and insulin (Alpco Ultrasensitive mouse insulin ELISA) as single replicates.

[2] = system: male db/db mice; experiment: Acute oral glucose tolerance test (OGTT), plasma glucose and insulin, diabetic db/db mice (Example 1.2)
Description: as §1
Mice were weighed on the day of arrival (Thursday) and group housed in polypropylene cages on a normal phase 12 h light-dark cycle (lights on 07:00). Cages contained sawdust, red house, red tunnel, Sizzlenest and nestlet at a temperature of 24±2° C. Upon arrival, mice were weighed and given wet mash to aid recovery from transport. Mice were weighed the following day and on the Monday of the following week.
Experimental Procedures: Animals underwent a three-day handling phase, which commenced five days after arrival. On the final day of handling the mice were dosed orally once with vehicle. At the start of the handling phase, animals were weighed (to the nearest 0.1 g using an electronic top-pan balance) and allocated into 6, weight matched treatment groups by a Statistician. On the day of baseline dosing, mice were fasted for approximately 16 hours to a timed schedule, beginning at 16:45. The mice were placed into individual clean cages with access to water, but not food. The following morning the mice were moved to a separate room which was maintained with the same environmental conditions and underwent an OGTT. […] Five minutes later, the mice in groups A, C, D, E and F were dosed by the oral route (30 minutes pre-glucose). […] All mice were given an oral glucose load of D-glucose at a dose of 2.0 g/kg (400 mg/mL solution; dose volume 5 mL/kg). Further blood samples (30 µl) were taken 3 minutes before glucose administration (B2) and at 15 (20 µl), 30 (20 µl), 60 (25 µl) and 120 (25 µl) minutes post glucose administration. All blood samples were collected into lithium heparinised tubes (Sarstedt Microvette CB300LH) and plasma separated by centrifugation to produce a single aliquot of plasma which was frozen (-80° C.) and subsequently assayed for glucose (Thermoelectron infinity glucose reagent, TR15421) and insulin (Alpco mouse ultrasensitive insulin kit 80 INSMSU-E10).
Upon completion of the OGTT, all animals were humanely killed by a Schedule 1 method (exposure to a rising concentration of CO2 with confirmation of death by cervical dislocation). A terminal blood sample was taken from groups A, C, D, E and F only by cardiac puncture into a lithium heparin-coated tube (Sarstedt CB300LH) and the plasma separated by centrifugation. A single plasma aliquot (approximately 100 µl) was stored frozen prior to shipment of the compound to Charles River Laboratories, USA.

[3] = system: lean male C57BL/6J mice; experiment: Acute oral glucose tolerance test (OGTT), plasma glucose and insulin, lean mice (Example 1.1); set-up: Plasma glucose AUC Mean: dose or concentration left out as unconfirmed
Description: as §1
Mice were weighed on the day of arrival (Thursday) and singly housed upon arrival and throughout the study in polypropylene cages on a normal phase 12 h light-dark cycle (lights on 07:00). Cages contained sawdust, red acrylic house, red acrylic tunnel, sizzlenest and nestlet at a temperature of 21±4° C. Upon arrival, mice were weighed and given wet mash to aid recovery from transport. Mice were weighed the following day and on the Monday of the following week.
Experimental Procedures: Animals underwent a three-day handling phase, which commenced five days after arrival. On the final day of handling the mice were dosed orally once with vehicle. At the start of the handling phase, animals were weighed (to the nearest 0.1 g using an electronic top-pan balance) and allocated into 6 weight-matched treatment groups by a Statistician. On the day of baseline dosing, mice were fasted for approximately 16 hours to a timed schedule, beginning at 16:45. The mice were placed into individual clean cages with access to water, but not food. The following morning the mice were moved to a separate room which was maintained with the same environmental conditions and underwent an OGTT. […] Five minutes later, the mice in groups A, C, D, E and F were dosed by the oral route (30 minutes pre-glucose). […] All mice were given an oral glucose load of D-glucose at a dose of 2.0 g/kg (400 mg/mL solution; dose volume 5 mL/kg). Further blood samples (30 µl) were taken 3 minutes before glucose administration (B2) and at 15 (20 µl), 30 (20 µl), 60 (25 µl) and 120 (25 µl) minutes post glucose administration. All blood samples were collected into lithium heparinised tubes (Sarstedt Microvette CB300LH) and plasma separated by centrifugation to produce a single aliquot of plasma which was frozen (-80° C.) and subsequently assayed for glucose (Thermoelectron infinity glucose reagent, TR15421) and insulin (Alpco mouse ultrasensitive insulin kit 80 INSMSU-E10).
Upon completion of the OGTT, all animals were humanely killed by a Schedule 1 method (exposure to a rising concentration of CO2 with confirmation of death by cervical dislocation). A terminal blood sample was taken from groups A, C, D, E and F only by cardiac puncture into a lithium heparin-coated tube (Sarstedt CB300LH) and the plasma separated by centrifugation.

[4] = 40 µg/kg iv group, Post-treatment baseline (B2)
[5] = 40 µg/kg iv with Glucose 1 g/kg
[6] = 40 µg/kg iv with Glucose 1 g/kg, 5 minutes
[7] = 40 µg/kg iv with Glucose 1 g/kg, 10 minutes
[8] = 40 µg/kg iv with Glucose 1 g/kg, 30 minutes
[9] = 40 µg/kg iv with Glucose 1 g/kg, 60 minutes
[10] = 15 minutes, Exendin-4 300 µg/kg ip
[11] = 30 minutes, Exendin-4 300 µg/kg ip
[12] = 60 minutes, Exendin-4 300 µg/kg ip
[13] = 120 minutes, Exendin-4 300 µg/kg ip
[14] = AUC above baseline (0-60 minutes), Exendin-4 300 µg/kg ip
[15] = AUC above baseline (0-120 minutes), Exendin-4 300 µg/kg ip
[16] = Area under curve (0-60 minutes), Exendin-4 300 µg/kg ip
[17] = Area under curve (0-60 minutes), Exendin-4 300 µpg/kg ip
[18] = Area under curve (0-120 minutes), Exendin-4 300 µg/kg ip
[19] = Area under curve (0–120 minutes), Exendin-4 300 µg/kg ip
[20] = Post-treatment baseline (B2), Exendin-4 300 µg/kg ip
[21] = 15 minutes, Exendin-4 1 µg/kg ip
[22] = 30 minutes, Exendin-4 1 µg/kg ip
[23] = 60 minutes, Exendin-4 1 µg/kg ip
[24] = 120 minutes, Exendin-4 1 µg/kg ip
[25] = AUC above baseline (0-60 minutes), Exendin-4 1 µg/kg ip
[26] = AUC above baseline (0-120 minutes), Exendin-4 1 µg/kg ip
[27] = Area under curve (0-60 minutes), Exendin-4 1 µg/kg ip
[28] = Area under curve (0-120 minutes), Exendin-4 1 µg/kg ip
[29] = Area under curve (0-120 minutes), Exendin-4 ip
[30] = Post-treatment baseline (B2), Exendin-4 1 µg/kg ip

Q: With “Exendin-4: GLP 1 receptor agonist utilised as a positive control” as the substance, how does the “Plasma glucose % of vehicle” value [1, 4] read?
A: Its value is 98.6%.

Q: What about the “Plasma glucose Mean” value [1, 4] of the same substance?
A: Its value is 9.30 mM.

Q: What about the “Plasma insulin % of vehicle” value [1, 4] of the same substance?
A: The value was 95.1%.

Q: What about the “Plasma insulin Mean” value [1, 4] of the same substance?
A: The value was 0.17 ng/mL.

Q: And the “Plasma glucose - AUC above baseline (AUCB2) (0-60 minutes), Mean” value [1, 5]?
A: Its value is 3.22 mM·h.

Q: What about the “Plasma glucose AUC (0-60 minutes), % of vehicle” value [1, 5] of the same substance?
A: The value was 73.5%.

Q: And the “Plasma glucose AUC, Area under curve (0-60 minutes), Mean” value [1, 5]?
A: The value was 12.65 mM·h.

Q: And the “Plasma glucose AUCB2 (0-60 minutes), Difference from vehicle” value [1, 5]?
A: Its value is -4.43 mM·h.

Q: What about the “Plasma insulin - AUC above baseline (AUCB2) (0-60 minutes), Mean” value [1, 5] of the same substance?
A: Its value is 0.73 ng·h/mL.

Q: What about the “Plasma insulin - Area under curve AUC (0-60 minutes), Mean” value [1, 5] of the same substance?
A: The value was 0.93 ng·h/mL.

Q: And the “Plasma insulin AUC (0-60 minutes), % of vehicle” value [1, 5]?
A: Its value is 218.8%.

Q: What about the “Plasma insulin AUCB2 (0-60 minutes), Difference from vehicle” value [1, 5] of the same substance?
A: The value was 0.48 ng·h/mL.

Q: What about the “Plasma glucose % of vehicle” value [1, 6] of the same substance?
A: Its value is 92.6%.

Q: And the “Plasma glucose Mean” value [1, 6]?
A: The value was 28.43 mM.

Q: And the “Plasma insulin % of vehicle” value [1, 6]?
A: The value was 347.3%.

Q: And the “Plasma insulin Mean” value [1, 6]?
A: Its value is 1.99 ng/mL.

Q: What about the “Plasma glucose % of vehicle” value [1, 7] of the same substance?
A: Its value is 89.4%.

Q: And the “Plasma glucose Mean” value [1, 7]?
A: Its value is 22.15 mM.

Q: And the “Plasma insulin % of vehicle” value [1, 7]?
A: The value was 327.2%.

Q: And the “Plasma insulin Mean” value [1, 7]?
A: The value was 1.84 ng/mL.

Q: What about the “Plasma glucose % of vehicle” value [1, 8] of the same substance?
A: Its value is 59.0%.

Q: And the “Plasma glucose Mean” value [1, 8]?
A: The value was 8.35 mM.

Q: What about the “Plasma insulin % of vehicle” value [1, 8] of the same substance?
A: The value was 149.8%.

Q: What about the “Plasma insulin Mean” value [1, 8] of the same substance?
A: The value was 0.57 ng/mL.

Q: What about the “Plasma glucose % of vehicle” value [1, 9] of the same substance?
A: Its value is 57.8%.

Q: What about the “Plasma glucose Mean” value [1, 9] of the same substance?
A: Its value is 6.36 mM.

Q: What about the “Plasma insulin % of vehicle” value [1, 9] of the same substance?
A: The value was 117.2%.

Q: And the “Plasma insulin Mean” value [1, 9]?
A: Its value is 0.42 ng/mL.

Q: And the “plasma insulin vs vehicle” value ([1]; Exendin-4 40 µg/kg iv, 5, 10 and 30 minutes post glucose load)?
A: Its value is “statistically significant increase”.

Q: And the Plasma insulin peak ([1]; Exendin-4 40 µg/kg iv, 5 minutes post glucose load)?
A: Its Plasma insulin peak is 1.99 ng/mL.

Q: And the “Plasma glucose % of vehicle” value [2, 10]?
A: Its value is 39.5%.

Q: And the “Plasma glucose Mean” value [2, 10]?
A: Its value is 20.37 mM.

Q: And the “Plasma insulin % of vehicle” value [2, 10]?
A: The value was 176.4%.

Q: What about the “Plasma insulin Mean” value [2, 10] of the same substance?
A: The value was 11.33 ng/mL.

Q: What about the “Plasma glucose % of vehicle” value [2, 11] of the same substance?
A: The value was 34.7%.

Q: And the “Plasma glucose Mean” value [2, 11]?
A: Its value is 19.07 mM.

Q: What about the “Plasma insulin % of vehicle” value [2, 11] of the same substance?
A: Its value is 228.5%.

Q: What about the “Plasma insulin Mean” value [2, 11] of the same substance?
A: The value was 9.42 ng/mL.

Q: What about the “Plasma glucose % of vehicle” value [2, 12] of the same substance?
A: Its value is 32.9%.

Q: What about the “Plasma glucose Mean” value [2, 12] of the same substance?
A: The value was 12.91 mM.

Q: What about the “Plasma insulin % of vehicle” value [2, 12] of the same substance?
A: Its value is 210.5%.

Q: And the “Plasma insulin Mean” value [2, 12]?
A: The value was 8.95 ng/mL.

Q: And the “Plasma glucose % of vehicle” value [2, 13]?
A: The value was 52.4%.

Q: What about the “Plasma glucose Mean” value [2, 13] of the same substance?
A: The value was 10.71 mM.

Q: What about the “Plasma insulin % of vehicle” value [2, 13] of the same substance?
A: The value was 238.7%.

Q: And the “Plasma insulin Mean” value [2, 13]?
A: The value was 9.87 ng/mL.

Q: And the “Plasma glucose AUC above baseline Difference from vehicle” value [2, 14]?
A: Its value is -28.49 mM·h.

Q: What about the “Plasma glucose AUC above baseline Mean” value [2, 14] of the same substance?
A: Its value is -1.09 mM·h.

Q: And the “Plasma insulin AUC above baseline Difference from vehicle” value [2, 14]?
A: The value was -0.08 ng·h/mL.

Q: What about the “Plasma insulin AUC above baseline Mean” value [2, 14] of the same substance?
A: Its value is 0.89 ng·h/mL.

Q: What about the “Plasma glucose AUC above baseline Difference from vehicle” value [2, 15] of the same substance?
A: The value was -47.99 mM·h.

Q: And the “Plasma glucose AUC above baseline Mean” value [2, 15]?
A: Its value is -8.04 mM·h.

Q: What about the “Plasma insulin AUC above baseline Difference from vehicle” value [2, 15] of the same substance?
A: The value was -0.35 ng·h/mL.

Q: What about the “Plasma insulin AUC above baseline Mean” value [2, 15] of the same substance?
A: Its value is 0.98 ng·h/mL.

Q: What about the “Plasma insulin AUC % of vehicle” value [2, 16] of the same substance?
A: Its value is 213.0%.

Q: What about the “Plasma insulin AUC Mean” value [2, 16] of the same substance?
A: The value was 9.93 ng·h/mL.

Q: What about the “Plasma glucose AUC % of vehicle” value [2, 17] of the same substance?
A: The value was 38.8%.

Q: What about the “Plasma glucose AUC Mean” value [2, 17] of the same substance?
A: The value was 17.77 mM·h.

Q: And the “Plasma insulin AUC % of vehicle” value [2, 18]?
A: The value was 223.1%.

Q: And the “Plasma insulin AUC Mean” value [2, 18]?
A: Its value is 19.34 ng·h/mL.

Q: What about the “Plasma glucose AUC % of vehicle” value [2, 19] of the same substance?
A: The value was 39.6%.

Q: And the “Plasma glucose AUC Mean” value [2, 19]?
A: The value was 30.22 mM·h.

Q: What about the “plasma glucose vs vehicle” value ([2]; Exendin-4 300 µg/kg ip, all timepoints post-glucose) of the same substance?
A: The value was “statistically significant (p<0.001) reduction”.

Q: What about the “Plasma glucose Mean” value [2, 20] of the same substance?
A: Its value is 17.81 mM.

Q: And the “Plasma insulin % of vehicle” value [2, 20]?
A: Its value is 227.2%.

Q: And the “Plasma insulin Mean” value [2, 20]?
A: Its value is 8.99 ng/mL.

Q: What about the “Plasma glucose % of vehicle” value [3, 21] of the same substance?
A: The value was 65.9%.

Q: And the “Plasma glucose Mean” value [3, 21]?
A: Its value is 15.13 mM.

Q: What about the “Plasma insulin % of vehicle” value [3, 21] of the same substance?
A: Its value is 154.4%.

Q: And the “Plasma insulin Mean” value [3, 21]?
A: Its value is 1.92 ng/mL.

Q: What about the “Plasma glucose % of vehicle” value [3, 22] of the same substance?
A: Its value is 53.3%.

Q: What about the “Plasma glucose Mean” value [3, 22] of the same substance?
A: Its value is 12.81 mM.

Q: What about the “Plasma insulin % of vehicle” value [3, 22] of the same substance?
A: The value was 110.3%.

Q: And the “Plasma insulin Mean” value [3, 22]?
A: The value was 1.10 ng/mL.

Q: And the “Plasma glucose % of vehicle” value [3, 23]?
A: Its value is 58.4%.

Q: And the “Plasma glucose Mean” value [3, 23]?
A: Its value is 8.56 mM.

Q: And the “Plasma insulin % of vehicle” value [3, 23]?
A: The value was 73.1%.

Q: And the “Plasma insulin Mean” value [3, 23]?
A: The value was 0.37 ng/mL.

Q: What about the “Plasma glucose % of vehicle” value [3, 24] of the same substance?
A: Its value is 74.8%.

Q: What about the “Plasma glucose Mean” value [3, 24] of the same substance?
A: The value was 7.46 mM.

Q: What about the “Plasma insulin % of vehicle” value [3, 24] of the same substance?
A: Its value is 63.5%.

Q: What about the “Plasma insulin Mean” value [3, 24] of the same substance?
A: Its value is 0.27 ng/mL.

Q: What about the “Plasma glucose AUCB2 Difference from vehicle” value [3, 25] of the same substance?
A: Its value is -8.32 mM·h.

Q: And the “Plasma glucose AUCB2 Mean” value [3, 25]?
A: The value was 1.49 mM·h.

Q: And the “Plasma insulin AUC above baseline Difference from vehicle” value [3, 25]?
A: Its value is 0.02 ng·h/mL.

Q: And the “Plasma insulin AUC above baseline Mean” value [3, 25]?
A: The value was 0.72 ng·h/mL.

Q: And the “Plasma glucose AUCB2 Difference from vehicle” value [3, 26]?
A: Its value is -12.99 mM·h.

Q: What about the “Plasma glucose AUCB2 Mean” value [3, 26] of the same substance?
A: Its value is -0.58 mM·h.

Q: What about the “Plasma insulin AUC above baseline Difference from vehicle” value [3, 26] of the same substance?
A: The value was -0.28 ng·h/mL.

Q: What about the “Plasma insulin AUC above baseline Mean” value [3, 26] of the same substance?
A: Its value is 0.76 ng·h/mL.

Q: And the “Plasma glucose AUC % of vehicle” value [3, 27]?
A: Its value is 61.5%.

Q: What about the “Plasma insulin AUC % of vehicle” value [3, 27] of the same substance?
A: Its value is 125.7%.

Q: What about the “Plasma insulin AUC Mean” value [3, 27] of the same substance?
A: The value was 1.06 ng·h/mL.

Q: What about the “Plasma insulin AUC % of vehicle” value [3, 28] of the same substance?
A: The value was 110.9%.

Q: What about the “Plasma insulin AUC Mean” value [3, 28] of the same substance?
A: Its value is 1.48 ng·h/mL.

Q: And the “Plasma glucose AUC % of vehicle” value [3, 29]?
A: Its value is 63.6%.

Q: And the “Plasma glucose AUC Mean” value [3, 29]?
A: The value was 20.44 mM·h.

Q: And the “plasma glucose vs vehicle” value ([3]; Exendin-4 1 µg/kg ip 10 minutes before glucose load, all timepoints post-glucose)?
A: The value was “statistically significant (p<0.01) reduction”.

Q: What about the “Plasma glucose % of vehicle” value [3, 30] of the same substance?
A: Its value is 111.4%.

Q: What about the “Plasma glucose Mean” value [3, 30] of the same substance?
A: Its value is 10.66 mM.

Q: And the “Plasma insulin % of vehicle” value [3, 30]?
A: The value was 221.2%.

Q: And the “Plasma insulin Mean” value [3, 30]?
A: The value was 0.34 ng/mL.
